Measured values reported in patent US20240150423A1, “GLP-1 ANALOGUE-MODIFIED DIMERS WITH DIFFERENT CONFIGURATIONS, PREPARATION METHOD THEREOF, AND APPLICATION THEREOF IN TREATMENT OF TYPE II DIABETES” (Nanjing Finepeptide Biopharmaceutical Co.,Ltd, priority 2019, published 2024).
Non-standard residues stand in square brackets, D forms with d. No end group written: not given here. bAib = not defined here; PEG = not defined here; Aib = CC(C)(N)C(=O)O

test system: Normal Kunming (KM) mice; assay: multiple OGTT (mOGTT): hypoglycemic duration after a single administration; type: in vivo; settings: monomeric peptides, single injection at the same dose (1.126 nmol), subcutaneous
Description: • 1. Methods: Normal Kunming (KM) mice (purchased from Guangdong Animal Center) were used for oral glucose tolerance test (OGTT) to obtain the hypoglycemic activity and durability of drug. […] The blood glucose meter and blood glucose test paper were from Bayer […]. The average blood glucose of each group was used as an evaluation standard: When the average blood glucose of experimental group was higher than that of the NaCl control group for two times, the measurement stopped and the hypoglycemic period compared to the blank control group was the effective duration. • 2. Results • 2.1 single OGTTs: after a single administration, the mice were orally administered glucose once and measured the blood glucose from the tail blood at 0, 10, 20, 40, 60 and 120 min. […] The duration of each monomer group was about 1⁄2-1⁄4 of the duration of its corresponding dimer group. […] Therefore, the 2G3 peptide was selected for treating type II diabetes (T2D) in vivo and subsequent experiments.

Substance	Hypoglycemic
His-Ala-Glu-Gly-Thr-Phe-ThrCys-Asp-Val-Ser-Ser-Tyr-Leu-Glu-Gly-Gln-Ala-Ala-Lys[N-ϵ-(N-α-oleoyl-L-γ-glutamyl)]-Glu-Phe-Ile-Ala-Trp-Leu-Val-Arg-Gly-Arg-Gly-OH (HAEGTFTCDVSSYLEGQAAXEFIAWLVRGRG; oleoyl-gamma-Glu on Lys; C-terminal acid; Sequence is synthesized; (20)..(20) Xaa is 26Lys[N-e-(N-a-oleoyl-L-g-glutamyl)]; (31)..(31) C-terminal) [G8 series 58]	1 days
His-βAib-Glu-Gly-Thr-Phe-Thr-Ser-Asp-Val-Ser-Cys-Tyr-Leu-Glu-Gly-Gln-Ala-Ala-Lys[N-ϵ-(N-α-Palmitoyl-L-γ-glutamyl)]-Glu-Phe-Ile-Ala-Trp-Leu-Val-Lys[N-ϵ-(N-α-Palmitoyl-L-γ-glutamyl)]-Gly-Arg-Gly-NH2 (HXEGTFTSDVSCYLEGQAAXEFIAWLVXGRG; not fully specified; beta-Aib; two palmitoyl-gamma-Glu on Lys; C-terminal amide; Sequence is synthesized; (2)..(2) Xaa is bAib; (20)..(20) Xaa is 26Lys[N-e-(N-a-palmitoyl-L-g-glutamyl)]; (28)..(28) Xaa is 26Lys[N-e-(N-a-palmitoyl-L-g-glutamyl)]; (31)..(31) N-terminal) [G5 series 43]	3 days
His-aAib-Glu-Gly-Thr-Phe-Thr-Cys-Asp-Val-Ser-Ser-Tyr-Leu-Glu-Gly-Gln-Ala-Ala-Lys-Glu-Phe-Ile-Ala-Trp-Leu-Val-Lys-aAib-Arg-NH2 (H[Aib]EGTFTCDVSSYLEGQAAKEFIAWLVK[Aib]R-NH2; N-terminus assumed; SMILES CC[C@H](C)[C@H](NC(=O)[C@H](Cc1ccccc1)NC(=O)[C@H](CCC(=O)O)NC(=O)[C@H](CCCCN)NC(=O)[C@H](C)NC(=O)[C@H](C)NC(=O)[C@H](CCC(N)=O)NC(=O)CNC(=O)[C@H](CCC(=O)O)NC(=O)[C@H](CC(C)C)NC(=O)[C@H](Cc1ccc(O)cc1)NC(=O)[C@H](CO)NC(=O)[C@H](CO)NC(=O)[C@@H](NC(=O)[C@H](CC(=O)O)NC(=O)[C@H](CS)NC(=O)[C@@H](NC(=O)[C@H](Cc1ccccc1)NC(=O)[C@@H](NC(=O)CNC(=O)[C@H](CCC(=O)O)NC(=O)C(C)(C)NC(=O)[C@@H](N)Cc1c[nH]cn1)[C@@H](C)O)[C@@H](C)O)C(C)C)C(=O)N[C@@H](C)C(=O)N[C@@H](Cc1c[nH]c2ccccc12)C(=O)N[C@@H](CC(C)C)C(=O)N[C@H](C(=O)N[C@@H](CCCCN)C(=O)NC(C)(C)C(=O)N[C@@H](CCCNC(=N)N)C(N)=O)C(C)C) [G8 series 65]	2 days
His-Ala-Glu-Gly-Thr-Phe-Thr-Ser-Asp-Val-Ser-Cys-Tyr-Leu-Glu-Gly-Gln-Ala-Ala-Lys[N-ϵ-(N-α-oleoyl)]-Glu-Phe-Ile-Ala-Trp-Leu-Val-Arg-Gly-Arg-Gly-NH2 (HAEGTFTSDVSCYLEGQAAXEFIAWLVRGRG; not fully specified; oleoyl on Lys; C-terminal amide; Sequence is synthesized; (20)..(20) Xaa is 26Lys[N-e-(N-a-oleoyl-L-g-glutamyl)]; (31)..(31) N-terminal) [G4 series 33]	7 days
His-Ala-Glu-Gly-Thr-Phe-Thr-Ser-Asp-Val-Ser-Cys-Tyr-Leu-Glu-Gly-Gln-Ala-Ala-Lys-Glu-Phe-Ile-Ala-Trp-Leu-Val-Arg-Gly-Arg-NH-PEG (HAEGTFTSDVSCYLEGQAAKEFIAWLVRGR; not fully specified; C-terminal PEG; Sequence is synthesized; (30)..(30) N-terminal is modified with PEG) [G9 series 71]	3 days
His-Ala-Glu-Gly-Thr-Phe-Thr-Ser-Asp-Val-Cys-Ser-Tyr-Leu-Glu-Gly-Gln-Ala-Ala-Lys[N-ϵ-(N-α-oleoyl-L-γ-glutamyl)]-Glu-Phe-Ile-Ala-Trp-Leu-Val-Arg-Gly-Arg-Gly-OH (HAEGTFTSDVCSYLEGQAAXEFIAWLVRGRG; oleoyl-γ-glutamyl on Lys; C-terminal acid; Sequence is synthesized; (20)..(20) Xaa is 26Lys[N-e-(N-a-oleoyl-L-g-glutamyl)]; (31)..(1) C-terminal) [G2 series 9]	3 days
His-aAib-Glu-Gly-Thr-Phe-Thr-Ser-Asp-Val-Ser-Cys-Tyr-Leu-Glu-Gly-Gln-Ala-Ala-Lys[N-ϵ-(N-α-Palmitoyl-L-γ-glutamyl)]-Glu-Phe-Ile-Ala-Trp-Leu-Val-Lys[N-ϵ-(N-α-Palmitoyl-L-γ-glutamyl)]-Gly-Arg-Gly-NH2 (HXEGTFTSDVSCYLEGQAAXEFIAWLVXGRG; Aib; two palmitoyl-gamma-Glu on Lys; C-terminal amide; Sequence is synthesized; (2)..(2) Xaa is aAib; (20)..(20) Xaa is 26Lys[N-e-(N-a-palmitoyl-L-g-glutamyl)]; (28)..(28) Xaa is 26Lys[N-e-(N-a-palmitoyl-L-g-glutamyl)]; (31)..(31) N-terminal) [G5 series 42]	3 days
His-aAib-Glu-Gly-Thr-Phe-Thr-Ser-Asp-Val-Ser-Cys--Tyr-Leu-Glu-Gly-Gln-Ala-Ala-Lys[N-ϵ-(N-α-oleoyl-L-γ-glutamyl)]-Glu-Phe-Ile-Ala-Trp-Leu-Val-Arg-Gly-Arg-Gly-NH2 (HXEGTFTSDVSCYLEGQAAXEFIAWLVRGRG; Aib; oleoyl-gamma-Glu on Lys; C-terminal amide; Sequence is synthesized; (2)..(2) Xaa is aAib; (20)..(20) Xaa is 26Lys[N-e-(N-a-oleoyl-L-g-glutamyl)]; (31)..(31) N-terminal) [G6 series 47]	8 days
His-aAib-Glu-Gly-Thr-Phe-Thr-Ser-Asp-Val-Ser-Cys-Tyr-Leu-Glu-Gly-Gln-Ala-Ala-Lys[N-ϵ-(N-α-Palmitoyl)]-Glu-Phe-Ile-Ala-Trp-Leu-Val-Arg-Gly-Arg-Gly-NH2 (HXEGTFTSDVSCYLEGQAAXEFIAWLVRGRG; not fully specified; Aib; palmitoyl on Lys side chain; C-terminal amide; Sequence is synthesized; (2)..(2) Xaa is aAib; (20)..(20) Xaa is 26Lys[N-e-(N-a-palmitoyl-L-g-glutamyl)]; (31)..(31) N-terminal) [G4 series 37]	7 days

same assay, conditions: single injection at the same dose (1.126 nmol), subcutaneous

Substance	Hypoglycemic duration
2G8 series 68: disulfide-linked homodimer of monomer SEQ ID NO: 68 (HXEGTFTCDVSSYLEGQAAXEFIAWLVRGRG; disulfide-linked homodimer; Sequence is synthesized; (2)..(2) Xaa is bAla; (20)..(20) Xaa is 26Lys[N-e-(N-a-oleoyl-L-g-glutamyl)]; (31)..(31) N-terminal)	7 days
2G4 series 33: disulfide-linked homodimer of monomer SEQ ID NO: 33 (HAEGTFTSDVSCYLEGQAAXEFIAWLVRGRG; not fully specified; disulfide-linked homodimer; Sequence is synthesized; (20)..(20) Xaa is 26Lys[N-e-(N-a-oleoyl-L-g-glutamyl)]; (31)..(31) N-terminal)	16 days
2G8 series 67: disulfide-linked homodimer of monomer SEQ ID NO: 67 (H[bAib]EGTFTCDVSSYLEGQAAKEFIAWLVR[bAib]R; reading uncertain; also: disulfide-linked homodimer of two chains, disulfide at 8, other end not in the chain)	3 days
2G2 series 9: disulfide-linked homodimer of monomer SEQ ID NO: 9 (HAEGTFTSDVCSYLEGQAAXEFIAWLVRGRG; disulfide-linked homodimer; Sequence is synthesized; (20)..(20) Xaa is 26Lys[N-e-(N-a-oleoyl-L-g-glutamyl)]; (31)..(1) C-terminal)	5 days
2G3 series 23: disulfide-linked homodimer of monomer SEQ ID NO: 23 (HAEGTFTSDVSCYLEGQAAXEFIAWLVRGRG; disulfide-linked homodimer; Sequence is synthesized; (20)..(20) Xaa is 26Lys[N-e-(N-a-oleoyl-L-g-glutamyl)]; (31)..(31) N-terminal)	17 days
2G8 series 66: disulfide-linked homodimer of monomer SEQ ID NO: 66 (HXEGTFTCDVSSYLEGQAAXEFIAWLVRGRG; disulfide-linked homodimer; Sequence is synthesized; (2)..(2) Xaa is bAib; (20)..(20) Xaa is 26Lys[N-e-(N-a-oleoyl-L-g-glutamyl)]; (31)..(31) N-terminal)	8 days
2G6 series 49: disulfide-linked homodimer of monomer SEQ ID NO: 49 (HXEGTFTSDVSCYLEGQAAXEFIAWLVRGRG; disulfide-linked homodimer; Sequence is synthesized; (2)..(2) Xaa is bAib; (20)..(20) Xaa is 26Lys[N-e-(N-a-oleoyl-L-g-glutamyl)]; (31)..(31) N-terminal)	17 days
2G9 series 71: disulfide-linked homodimer of PEG-modified monomer SEQ ID NO: 71 (HAEGTFTSDVSCYLEGQAAKEFIAWLVRGR-{NH2-PEG}; reading uncertain; also: disulfide-linked homodimer)	5 days
